Data published in US20240207258A1, “HETEROCYCLIC PDK1 INHIBITORS FOR USE TO TREAT CANCER” (Viracta Therapeutics, Inc., priority 2015, published 2024).
Where two headings read alike, the source gives them in different places.

How the values were obtained:
[1] = system: U-937; test: MTS cell proliferation assay, U-937; format: cell-based; conditions: Homo sapiens; U-937, 72 hr
Description: (§1) Cell proliferation was measured using the CellTiter 96 Aqueous Non-Radioactive Cell Proliferation Assay (Promega). The CellTiter 96® AQueous Assay is composed of solutions of a tetrazolium compound [3-(4,5-dimethylthiazol-2-yl)-5-(3-carboxymethoxyphenyl)-2-(4-sulfophenyl)-2H-tetrazolium, inner salt; MTS] and an electron coupling reagent (phenazine methosulfate) PMS. MTS is bioreduced by cells into a formazan product that is soluble in tissue culture medium. The absorbance of the formazan product at 490 nm can be measured directly from assay plates without additional processing. The quantity of formazan product as measured by the amount of 490 nm absorbance is directly proportional to the number of living cells in culture. Cells were seeded into 96-well or 384-well clear plates in a volume of 200 μL (96-well) or 50 μL (384-well) at optimized densities ranging from 1,000 to 40,000 cells per well for 96-well plates or 1,200 to 25,000 cells per well for 384-well plates depending on cell-line. After 4-6 hr recovery, serially diluted compounds in DMSO were added to the cells using (0.1% v/v final DMSO concentration). Cells were then grown at 37° C. in a humidified incubator with 5% CO2 for 72 hr. A 20:1 [3-(4,5-dimethylthiazol-2-yl)-5-(3-carboxymethoxyphenyl)-2-(4-sulfophenyl)-2H-tetrazolium](MTS):phenazine methosulfate (PMS) solution in DPBS was made immediately before use, added to each well, and cells were incubated for 1.5 hr at 37° C. The absorbance at 490 nm was then measured using a platereader. Absorbance values were normalized as percent of control (cells incubated in the presence of 0.1% v/v DMSO). Sigmoidal dose-response curves were plotted using log(inhibitor) vs. response—Variable slope (four parameters) model with a top value constrained to 100% (GraphPad Prism version 6.00 for Windows, GraphPad Software, La Jolla California USA). […] Curves for compounds that reached a plateau were matched exactly to the measurement points. […]

[2] = system: KG1; test: MTS cell proliferation assay, KG1; format: cell-based; conditions: Homo sapiens, KG-1; KG1, 72 hr
Description: as §1

[3] = system: C1498; test: MTS cell proliferation assay, C1498; format: cell-based, murine; conditions: Mus musculus; for EC50: C1498, 72 hr, read-out: MTS proliferation assay
Description: Cell proliferation was measured using the CellTiter 96 Aqueous Non-Radioactive Cell Proliferation Assay (Promega). […] MTS is bioreduced by cells into a formazan product that is soluble in tissue culture medium. The absorbance of the formazan product at 490 nm can be measured directly from assay plates without additional processing. The quantity of formazan product as measured by the amount of 490 nm absorbance is directly proportional to the number of living cells in culture. Cells were seeded into 96-well or 384-well clear plates in a volume of 200 μL (96-well) or 50 μL (384-well) at optimized densities ranging from 1,000 to 40,000 cells per well for 96-well plates or 1,200 to 25,000 cells per well for 384-well plates depending on cell-line. After 4-6 hr recovery, serially diluted compounds in DMSO were added to the cells using (0.1% v/v final DMSO concentration). Cells were then grown at 37° C. in a humidified incubator with 5% CO2 for 72 hr. A 20:1 [3-(4,5-dimethylthiazol-2-yl)-5-(3-carboxymethoxyphenyl)-2-(4-sulfophenyl)-2H-tetrazolium](MTS):phenazine methosulfate (PMS) solution in DPBS was made immediately before use, added to each well, and cells were incubated for 1.5 hr at 37° C. The absorbance at 490 nm was then measured using a platereader. Absorbance values were normalized as percent of control (cells incubated in the presence of 0.1% v/v DMSO). Sigmoidal dose-response curves were plotted using log(inhibitor) vs. response—Variable slope (four parameters) model with a top value constrained to 100% (GraphPad Prism version 6.00 for Windows, GraphPad Software, La Jolla California USA). […] To determine potential of compounds of the invention to affect viability of hematological cancers, cell lines representing various tumor types were selected and tested. […] In addition, two murine cell lines were tested: A20 […].

[4] = system: hematologic tumor cell lines; test: MTS cell proliferation assay, panel of hematologic cancer cell lines; format: cell-based
Description: Cell proliferation was measured using the CellTiter 96 Aqueous Non-Radioactive Cell Proliferation Assay (Promega). The CellTiter 96® AQueous Assay is composed of solutions of a tetrazolium compound [3-(4,5-dimethylthiazol-2-yl)-5-(3-carboxymethoxyphenyl)-2-(4-sulfophenyl)-2H-tetrazolium, inner salt; MTS] and an electron coupling reagent (phenazine methosulfate) PMS. MTS is bioreduced by cells into a formazan product that is soluble in tissue culture medium. The absorbance of the formazan product at 490 nm can be measured directly from assay plates without additional processing. The quantity of formazan product as measured by the amount of 490 nm absorbance is directly proportional to the number of living cells in culture. Cells were seeded into 96-well or 384-well clear plates in a volume of 200 μL (96-well) or 50 μL (384-well) at optimized densities ranging from 1,000 to 40,000 cells per well for 96-well plates or 1,200 to 25,000 cells per well for 384-well plates depending on cell-line. After 4-6 hr recovery, serially diluted compounds in DMSO were added to the cells using (0.1% v/v final DMSO concentration). Cells were then grown at 37° C. in a humidified incubator with 5% CO2 for 72 hr. A 20:1 [3-(4,5-dimethylthiazol-2-yl)-5-(3-carboxymethoxyphenyl)-2-(4-sulfophenyl)-2H-tetrazolium](MTS):phenazine methosulfate (PMS) solution in DPBS was made immediately before use, added to each well, and cells were incubated for 1.5 hr at 37° C. The absorbance at 490 nm was then measured using a platereader. Absorbance values were normalized as percent of control (cells incubated in the presence of 0.1% v/v DMSO). Sigmoidal dose-response curves were plotted using log(inhibitor) vs. response—Variable slope (four parameters) model with a top value constrained to 100% (GraphPad Prism version 6.00 for Windows, GraphPad Software, La Jolla California USA). […] Curves for compounds that reached a plateau were matched exactly to the measurement points. […] To determine potential of compounds of the invention to affect viability of hematological cancers, cell lines representing various tumor types were selected and tested. Human cell lines tested were: MOLM-13 (acute myeloid leukemia (AML)), MV4-11 (AML), U-2932 (ABC-diffuse large B cell lymphoma), U-937 (histiocytic lymphoma), U-266 (multiple myeloma), RPMI-8226 (multiple myeloma), CMK (megakaryoblastic cell line), SU-DHL-4 (GCB-diffuse large B cell lymphoma), KG1 (AML), Mec-1 (chronic B-cell leukemia), MOLM-16 (AML), Jeko (B-cell lymphoma), WSU-DLCL2 (B-cell lymphoma), JJN3 (plasma cell leukemia), SU-DHL-6 (GCB-diffuse large B cell lymphoma), and Z-138 (mantle cell lymphoma). In addition, two murine cell lines were tested: A20 […].

[5] = range against the various cell lines of Table 1, read-out: inhibition of cell proliferation EC50

| SMILES | EC50 [1] [nM] | EC50 [2] [nM] | EC50 [3] [nM] | EC50 [4, 5] [nM] | inhibition at 0.2 µM ([3]; C1498, 200 nM, read-out: growth inhibition) [%] | fold more potent than GSK2334470 in viability assays ([4]; 72 hours viability assays) | number of cell lines with growth inhibition at concentrations less than 500 nM ([4]; out of 16 cell lines) | EC50 ([4]; panel of more than 20 cell lines derived from hematologic cancers, read-out: anti-proliferative activity EC50) [nM] | EC50 ([4]; range over 16 cell lines, FIG. 3, read-out: potency in the cell proliferation assay (EC50)) [nM] |
| --- | --- | --- | --- | --- | --- | --- | --- | --- | --- |
| C[C@H](NC(=O)c1nc(C#N)cnc1NCc1ccc(-c2cnc3[nH]nc(N)c3n2)cc1)c1ccc(F)c(F)c1 [Compound 1, 3-[4-(3-Amino-1H-pyrazolo[3,4-b]pyrazin-5-yl)-benzylamino]-6-cyano-pyrazine-2-carboxylic acid [1-(3,4-difluoro-phenyl)-ethyl]-amide] | 123 | 175 | 53 | 3 to 853 |  |  |  |  |  |
| CNc1n[nH]c2ncc(-c3ccc(CNc4ncc(C#N)nc4C(=O)N[C@@H](C)c4ccc(F)c(F)c4)cc3)cc12 [Compound 2, 6-Cyano-3-[4-(3-methylamino-1H-pyrazolo[3,4-b]pyridin-5-yl)-benzylamino]-pyrazine-2-carboxylic acid [1-(3,4-difluoro-phenyl)-ethyl]-amide] | 74 | 195 | 45 | 3 to 853 | 80 | at least 10 fold | 15 | 3 to 900 | < 1000 |
